Test results as given in patent US11098038B2, “Imidazole-based anticancer agents and derivatives thereof, and methods of making and using same” (The University of Toledo, priority 2017, dated 2021).

What was measured:
Type in all cases: cell-based
SR = experiment: NCI 60 screen, SR; conditions: Homo sapiens, Leukemia
Method: (§1) The compounds synthesized were tested at the National Cancer Institute (NCI) for anti-proliferative activity in the 60 human tumor cell line assay.

EKVX = experiment: NCI 60 screen, EKVX; conditions: Homo sapiens, Non-Small Cell Lung
Method: as §1

NCI-H226 = experiment: NCI 60 screen, NCI-H226; conditions: Homo sapiens, Non-Small Cell Lung
Method: as §1

HT29 = experiment: NCI 60 screen, HT29; conditions: Homo sapiens, HT-29, Colon
Method: as §1

SW-620 = experiment: NCI 60 screen, SW-620; conditions: Homo sapiens, Colon
Method: as §1

SF-268 = experiment: NCI 60 screen, SF-268; conditions: Homo sapiens, CNS
Method: as §1

SF-295 = experiment: NCI 60 screen, SF-295; conditions: Homo sapiens, CNS
Method: as §1

MALME-3M = experiment: NCI 60 screen, MALME-3M; conditions: Homo sapiens, Melanoma
Method: as §1

MDA-MB-435 = experiment: NCI 60 screen, MDA-MB-435; conditions: Homo sapiens, Melanoma
Method: as §1

SK-MEL-2 = experiment: NCI 60 screen, SK-MEL-2 (second line); conditions: Homo sapiens; Melanoma, SK-MEL-2 (second of two lines so named, r38)
Method: as §1

SK-MEL-5 = experiment: NCI 60 screen, SK-MEL-5; conditions: Homo sapiens, Melanoma
Method: as §1

OVCAR-3 = experiment: NCI 60 screen, OVCAR-3; conditions: Homo sapiens, Ovarian
Method: as §1

OVCAR-5 = experiment: NCI 60 screen, OVCAR-5; conditions: Homo sapiens, Ovarian
Method: as §1

SK-OV-3 = experiment: NCI 60 screen, SK-OV-3; conditions: Homo sapiens, Ovarian
Method: as §1

SN12C = experiment: NCI 60 screen, SN12C; conditions: Homo sapiens, Renal
Method: as §1

DU-145 = experiment: NCI 60 screen, DU-145; conditions: Homo sapiens, Prostatic
Method: as §1

MCF7 = experiment: NCI 60 screen, MCF7; conditions: Homo sapiens, Breast
Method: as §1

MDA-MB-231/ATCC = experiment: NCI 60 screen, MDA-MB-231/ATCC; conditions: Homo sapiens, Breast
Method: as §1

HS 578T = experiment: NCI 60 screen, HS 578T; conditions: Homo sapiens, Breast
Method: as §1

BT-549 = experiment: NCI 60 screen, BT-549; conditions: Homo sapiens, Breast
Method: as §1

Q: With `O=C(Cc1ccc(/C=C/C(=O)c2ncc[nH]2)cc1)Nc1ccc(Cl)cc1` [Compound 25, (E)-2-(-4 (3-(1H-imidazol-2-yl)-3-oxoprop-1-en-1-yl)phenyl)-N-(4-chlorophenyl)acetamide] as the molecule, how does the GI50 (SR) read?
A: The GI50 was 0.798 µM.

Q: What about the GI50 (EKVX) of the same molecule?
A: The GI50 was 5.68 µM.

Q: What about the GI50 (NCI-H226) of the same molecule?
A: Its GI50 is 7.5 µM.

Q: And the GI50 (HT29)?
A: Its GI50 is 0.886 µM.

Q: What about the GI50 (SW-620) of the same molecule?
A: The GI50 was 1.43 µM.

Q: And the GI50 (SF-268)?
A: The GI50 was 1.65 µM.

Q: What about the GI50 (SF-295) of the same molecule?
A: Its GI50 is 3.33 µM.

Q: What about the GI50 (MALME-3M) of the same molecule?
A: The GI50 was 6.24 µM.

Q: And the GI50 (MDA-MB-435)?
A: The GI50 was 4.14 µM.

Q: What about the GI50 (SK-MEL-2) of the same molecule?
A: Its GI50 is 4.81 µM.

Q: What about the GI50 (SK-MEL-5) of the same molecule?
A: Its GI50 is 6.17 µM.

Q: And the GI50 (OVCAR-3)?
A: The GI50 was 1.14 µM.

Q: What about the GI50 (OVCAR-5) of the same molecule?
A: The GI50 was 3.3 µM.

Q: And the GI50 (SK-OV-3)?
A: Its GI50 is 9.74 µM.

Q: What about the GI50 (SN12C) of the same molecule?
A: The GI50 was 2.4 µM.

Q: What about the GI50 (DU-145) of the same molecule?
A: The GI50 was 1.7 µM.

Q: What about the GI50 (MCF7) of the same molecule?
A: The GI50 was 0.742 µM.

Q: And the GI50 (MDA-MB-231/ATCC)?
A: Its GI50 is 4.27 µM.

Q: And the GI50 (HS 578T)?
A: The GI50 was 18.8 µM.

Q: And the GI50 (BT-549)?
A: Its GI50 is 3.46 µM.
